In ChEMBL document CHEMBL5335813, “Gausemycin Antibiotic Family Acts via Ca2+-Dependent Membrane Targeting” (2024):
Values after ≈ are worked out from the molar mass of the structure shown. Active and inactive are the calls of the source.

What was measured:
[1] = system: Staphylococcus aureus; experiment: Antimicrobial activity against Staphylococcus aureus ATCC 29213 assessed as microbial growth inhibition in presence of Na+ by susceptibility testing method; assay type: functional
[2] = system: Lipid bilayer; experiment: Induction of pore formation in anionic DPhPG lipid bilayer membrane model at 1 to 100 ug/ml; conditions: dose 1-100 µg/ml
[3] = system: Staphylococcus aureus; experiment: Antimicrobial activity against Staphylococcus aureus ATCC 29213 assessed as microbial growth inhibition in presence of Ca2+ by susceptibility testing method; assay type: functional
[4] = system: Staphylococcus aureus; experiment: Antimicrobial activity against Staphylococcus aureus ATCC 29213 assessed as microbial growth inhibition at pH 7.4 by susceptibility testing method; assay type: functional
[5] = system: Staphylococcus aureus; experiment: Antimicrobial activity against Staphylococcus aureus ATCC 29213 assessed as microbial growth inhibition at pH 7 by susceptibility testing method; assay type: functional
[6] = system: Staphylococcus aureus; experiment: Antimicrobial activity against Staphylococcus aureus ATCC 29213 assessed as microbial growth inhibition in presence of (H2PO4)-/(HPO4)2- by susceptibility testing method; assay type: functional
[7] = system: Staphylococcus aureus; experiment: Antimicrobial activity against Staphylococcus aureus ATCC 29213 assessed as microbial growth inhibition in presence of (CH3CO2)- by susceptibility testing method; assay type: functional
[8] = system: Staphylococcus aureus; experiment: Antimicrobial activity against Staphylococcus aureus ATCC 29213 assessed as microbial growth inhibition measured after 18 hrs by CLSI based broth microdilution method; assay type: functional
[9] = system: Staphylococcus aureus; experiment: Antimicrobial activity against Staphylococcus aureus ATCC 29213 assessed as microbial growth inhibition at pH 8 by susceptibility testing method; assay type: functional
[10] = system: Staphylococcus aureus; experiment: Antimicrobial activity against Staphylococcus aureus ATCC 29213 assessed as microbial growth inhibition in presence of (HCO3)- by susceptibility testing method; assay type: functional
[11] = system: Lipid bilayer; experiment: Induction of pore formation in anionic TMoCL lipid bilayer membrane model at 1 to 100 ug/ml; conditions: dose 1-100 µg/ml
[12] = system: Escherichia coli; experiment: Antimicrobial activity against Escherichia coli expressing delta-tolC/KanR assessed as microbial growth inhibition in presence of Ca2+ by susceptibility testing method; assay type: functional, organism-based
[13] = system: Lipid bilayer; experiment: Induction of pore formation in cationic DOPC/DOTAP lipid bilayer membrane model at 1 to 100 ug/ml in presence of CaCl2; conditions: dose 1-100 µg/ml
[14] = system: Lipid bilayer; experiment: Induction of pore formation in anionic DOPC/DOPG lipid bilayer membrane model at 1 to 100 ug/ml in presence of CaCl2; conditions: dose 1-100 µg/ml
[15] = system: Staphylococcus aureus; experiment: Antimicrobial activity against Staphylococcus aureus ATCC 29213 assessed as microbial growth inhibition in presence of K+ by susceptibility testing method; assay type: functional
[16] = system: Macrococcus caseolyticus; experiment: Antimicrobial activity against Macrococcus caseolyticus assessed as microbial growth inhibition in presence of Ca2+ by susceptibility testing method; assay type: functional, organism-based; conditions: Macrococcoides caseolyticum
[17] = system: Lipid bilayer; experiment: Induction of pore formation in zwitter-ionic DOPC lipid bilayer membrane model at 1 to 100 ug/ml; conditions: dose 1-100 µg/ml
[18] = system: Staphylococcus aureus; experiment: Antimicrobial activity against Staphylococcus aureus ATCC 29213 assessed as microbial growth inhibition in presence of Mg2+ by susceptibility testing method; assay type: functional
[19] = system: Escherichia coli; experiment: Antimicrobial activity against Escherichia coli BL21 (DE3) assessed as microbial growth inhibition in presence of Ca2+ by susceptibility testing method; assay type: functional, organism-based
[20] = system: Staphylococcus aureus; experiment: Antimicrobial activity against Staphylococcus aureus ATCC 29213 assessed as microbial growth inhibition at pH 5 by susceptibility testing method; assay type: functional
[21] = system: Staphylococcus aureus; experiment: Antimicrobial activity against Staphylococcus aureus ATCC 29213 assessed as microbial growth inhibition in presence of Zn2+ by susceptibility testing method; assay type: functional
[22] = system: Pseudomonas aeruginosa; experiment: Antimicrobial activity against Pseudomonas aeruginosa assessed as microbial growth inhibition in presence of Ca2+ by susceptibility testing method; assay type: functional, organism-based
[23] = system: Lipid bilayer; experiment: Induction of pore formation in anionic DPhPG lipid bilayer membrane model at 1 to 100 ug/ml in presence of CaCl2; conditions: dose 1-100 µg/ml
[24] = system: Staphylococcus aureus; experiment: Antimicrobial activity against Staphylococcus aureus ATCC 29213 assessed as microbial growth inhibition in presence of Cu2+ by susceptibility testing method; assay type: functional
[25] = system: Lipid bilayer; experiment: Induction of pore formation in cationic DOPC/DOTAP lipid bilayer membrane model at 1 to 100 ug/ml; conditions: dose 1-100 µg/ml
[26] = system: Micrococcus luteus; experiment: Antimicrobial activity against Micrococcus luteus assessed as microbial growth inhibition in presence of Ca2+ by susceptibility testing method; assay type: functional, organism-based
[27] = system: Bacillus cereus; experiment: Antimicrobial activity against Bacillus cereus X1 assessed as microbial growth inhibition in presence of Ca2+ by susceptibility testing method; assay type: functional, organism-based
[28] = system: Staphylococcus aureus; experiment: Antimicrobial activity against Staphylococcus aureus ATCC 29213 assessed as microbial growth inhibition in presence of Fe3+ by susceptibility testing method; assay type: functional
[29] = system: Staphylococcus aureus; experiment: Antimicrobial activity against Staphylococcus aureus ATCC 29213 assessed as microbial growth inhibition in presence of <=200 mM of (H2PO4)-/(HPO4)2- by susceptibility testing method; assay type: functional, organism-based
[30] = system: Staphylococcus aureus; experiment: Antimicrobial activity against Staphylococcus aureus ATCC 29213 assessed as microbial growth inhibition at pH 10 by susceptibility testing method; assay type: functional
[31] = system: Staphylococcus aureus; experiment: Antimicrobial activity against Staphylococcus aureus ATCC 29213 assessed as microbial growth inhibition by susceptibility testing method; assay type: functional
[32] = system: Staphylococcus aureus; experiment: Antimicrobial activity against Staphylococcus aureus ATCC 29213 assessed as microbial growth inhibition at pH 9 by susceptibility testing method; assay type: functional
[33] = system: Lipid bilayer; experiment: Induction of pore formation in anionic TMoCL lipid bilayer membrane model assessed as pore-forming threshold concentration in presence of CaCl2
[34] = system: Lipid bilayer; experiment: Induction of pore formation in anionic TMoCL lipid bilayer membrane model assessed as pore-forming threshold concentration
[35] = system: Staphylococcus aureus; experiment: Antimicrobial activity against Staphylococcus aureus ATCC 29213 assessed as microbial growth inhibition in presence of Mn2+ by susceptibility testing method; assay type: functional
[36] = system: Lipid bilayer; experiment: Induction of pore formation in anionic DOPC/DOPG lipid bilayer membrane model at 1 to 100 ug/ml; conditions: dose 1-100 µg/ml
[37] = system: Staphylococcus aureus; experiment: Antimicrobial activity against Staphylococcus aureus ATCC 29213 assessed as microbial growth inhibition in presence of (B4O7)2- by susceptibility testing method; assay type: functional
[38] = system: Lipid bilayer; experiment: Induction of pore formation in anionic TOCL lipid bilayer membrane model at 1 to 100 ug/ml; conditions: dose 1-100 µg/ml
[39] = system: Lipid bilayer; experiment: Induction of pore formation in anionic TOCL lipid bilayer membrane model at 1 to 100 ug/ml in presence of CaCl2; conditions: dose 1-100 µg/ml
[40] = system: Staphylococcus aureus; experiment: Antimicrobial activity against Staphylococcus aureus ATCC 29213 assessed as microbial growth inhibition at pH 6 by susceptibility testing method; assay type: functional
[41] = system: Staphylococcus aureus; experiment: Antimicrobial activity against Staphylococcus aureus ATCC 29213 assessed as microbial growth inhibition at pH 5 to 6 by susceptibility testing method; assay type: functional, organism-based

| SMILES | Activity [2] | MIC [8] [µg/mL] | Activity [11] | Activity [13] | Activity [14] | Activity [17] | Activity [23] | Activity [25] | Activity [33] [µg/mL] | Activity [34] [µg/mL] | Activity [36] | Activity [38] | Activity [39] | inhibition [12] | inhibition [16] | inhibition [19] | inhibition [22] | inhibition [26] | inhibition [27] | Activity [29] | also measured |
| --- | --- | --- | --- | --- | --- | --- | --- | --- | --- | --- | --- | --- | --- | --- | --- | --- | --- | --- | --- | --- | --- |
| CC(C)/C=C/C=C\C(=O)NCCC(=O)N[C@@H](CCCNC(=O)CCN)C(=O)NC(CC(O)c1ccccc1)C(=O)NC(C(=O)N[C@@H](Cc1ccc(O)cc1)C(=O)NC1C(=O)N[C@H](CC(C)C)C(=O)N[C@@H](CC(=O)O)C(=O)NCC(=O)N[C@@H](CO)C(=O)NCC(=O)N[C@@H](CC(=O)c2ccc(Cl)cc2N)C(=O)N[C@@H](C)C(=O)N2CCC[C@H]2C(=O)NC1C)C(O)CC(=O)O (some centres not stated) | – | 8 (≈ 4.48 µM) | – | – | – | – | – | – | – | – | – | – | – | – | – | – | – | – | – | – | – |
| NCC[C@H](O)C(=O)N[C@@H]1C[C@H](N)[C@@H](O[C@H]2O[C@H](CN)[C@@H](O)[C@H](O)[C@H]2O)[C@H](O)[C@H]1O[C@H]1O[C@H](CO)[C@@H](O)[C@H](N)[C@H]1O | – | – | – | – | – | – | – | – | – | – | – | – | – | – | – | – | – | – | – | – | growth inhibition (GI) [41]: Active |
| CNCCC(=O)NCCC[C@H](NC(=O)CCNC(=O)/C=C\C=C\C(C)C)C(=O)NC(CC(O)c1ccccc1)C(=O)NC(C(=O)N[C@@H](Cc1ccc(OC2OC[C@H](O)[C@H](O)[C@H]2O)cc1)C(=O)NC1C(=O)N[C@H](CC(C)C)C(=O)N[C@@H](CC(=O)O)C(=O)NCC(=O)N[C@@H](CO)C(=O)NCC(=O)N[C@@H](CC(=O)c2ccc(Cl)cc2N)C(=O)N[C@@H](C)C(=O)N2CCC[C@H]2C(=O)NC1C)C(O)CC(=O)O (some centres not stated) | – | 4 (≈ 2.07 µM) | – | – | – | – | – | – | – | – | – | – | – | – | – | – | – | – | – | – | – |

Further lines, with some results ahead:

| Activity [2] | MIC [8] [µg/mL] | Activity [11] | Activity [13] | Activity [14] | Activity [17] | Activity [23] | Activity [25] | Activity [33] [µg/mL] | Activity [34] [µg/mL] | Activity [36] | Activity [38] | Activity [39] | SMILES | inhibition [12] | inhibition [16] | inhibition [19] | inhibition [22] | inhibition [26] | inhibition [27] | Activity [29] | also measured |
| --- | --- | --- | --- | --- | --- | --- | --- | --- | --- | --- | --- | --- | --- | --- | --- | --- | --- | --- | --- | --- | --- |
| Active | 1 (≈ 0.541 µM) | Active | Active | Active | inactive | Active | Active | 7 | 10 | Active | Active | Active | CC(C)/C=C/C=C\C(=O)NCCC(=O)N[C@@H](CCCN)C(=O)NC(CC(O)c1ccccc1)C(=O)NC(C(=O)N[C@@H](Cc1ccc(OC2OC[C@H](O)[C@H](O)[C@H]2O)cc1)C(=O)NC1C(=O)N[C@H](CC(C)C)C(=O)N[C@@H](CC(=O)O)C(=O)NCC(=O)N[C@@H](CO)C(=O)NCC(=O)N[C@@H](CC(=O)c2ccc(Cl)cc2N)C(=O)N[C@@H](C)C(=O)N2CCC[C@H]2C(=O)NC1C)C(O)CC(=O)O (some centres not stated) | inactive | Active | inactive | inactive | Active | Active | inactive | MIC [1]: 1 µg/mL; MIC [3]: 0.125 µg/mL; MIC [4]: 1 µg/mL (≈ 0.541 µM); MIC [5]: 2 µg/mL (≈ 1.08 µM); MIC [6]: 4 µg/mL; MIC [7]: 2 µg/mL; MIC [9]: 1 µg/mL (≈ 0.541 µM); MIC [10]: 0.5 µg/mL; MIC [15]: 1 µg/mL; MIC [18]: 1 µg/mL; MIC [20]: 4 µg/mL (≈ 2.17 µM); MIC [21]: 1 µg/mL; MIC [24]: 1 µg/mL; MIC [28]: 1 µg/mL; MIC [30]: 0.25 µg/mL (≈ 0.135 µM); MIC [31]: 1 µg/mL (≈ 0.541 µM); MIC [32]: 0.5 µg/mL (≈ 0.271 µM); MIC [35]: 1 µg/mL; MIC [37]: 1 µg/mL; MIC [40]: 4 µg/mL (≈ 2.17 µM) |
| Active | 2 (≈ 1.04 µM) | Active | Active | Active | inactive | Active | Active | 7 | 10 | Active | Active | Active | CC(C)/C=C/C=C\C(=O)NCCC(=O)N[C@@H](CCCNC(=O)CCN)C(=O)NC(CC(O)c1ccccc1)C(=O)NC(C(=O)N[C@@H](Cc1ccc(OC2OC[C@H](O)[C@H](O)[C@H]2O)cc1)C(=O)NC1C(=O)N[C@H](CC(C)C)C(=O)N[C@@H](CC(=O)O)C(=O)NCC(=O)N[C@@H](CO)C(=O)NCC(=O)N[C@@H](CC(=O)c2ccc(Cl)cc2N)C(=O)N[C@@H](C)C(=O)N2CCC[C@H]2C(=O)NC1C)C(O)CC(=O)O (some centres not stated) | inactive | Active | inactive | inactive | Active | Active | inactive | growth inhibition (GI) [1]: Active; growth inhibition (GI) [3]: Active; growth inhibition (GI) [15]: Active; growth inhibition (GI) [18]: Active; growth inhibition (GI) [21]: Active; growth inhibition (GI) [24]: Active; growth inhibition (GI) [41]: Active; growth inhibition (GI) [28]: Active; growth inhibition (GI) [35]: Active |
